According to the NIST ThermoML archive (doi:10.1021/acs.jced.8b00132):
Values joined by “and” are separate entries in the source; they are usually repeats but may differ in a detail not shown here. Equal values may be shown once.

Conditions: Gas

O=C(C(F)(F)C(F)(F)F)C(F)(C(F)(F)F)C(F)(F)F [dodecafluoro-2-methylpentan-3-one]
Conditions | thermal conductivity
454.15 K, 782 kPa, transient hot wire | 0.02353 W/m/K
454.15 K, 47000 kPa, transient hot wire | 0.06263 W/m/K
454.17 K, 779 kPa, transient hot wire | 0.02342 W/m/K
454.18 K, 46933 kPa, transient hot wire | 0.06269 W/m/K and 0.06261 W/m/K
454.2 K, 169 kPa, hot wire | 0.0226 W/m/K
454.2 K, 1365 kPa, transient hot wire | 0.0246 W/m/K
454.21 K, 169 kPa, hot wire | 0.02248 W/m/K
454.21 K, 1366 kPa, transient hot wire | 0.02448 W/m/K
454.22 K, 47 kPa, hot wire | 0.0225 W/m/K and 0.02246 W/m/K
454.23 K, 526 kPa, transient hot wire | 0.02368 W/m/K
454.26 K, 526 kPa, transient hot wire | 0.02374 W/m/K
454.32 K, 351 kPa, transient hot wire | 0.02402 W/m/K
454.32 K, 354 kPa, transient hot wire | 0.02406 W/m/K
454.33 K, 781 kPa, transient hot wire | 0.02352 W/m/K
454.36 K, 1365 kPa, transient hot wire | 0.02461 W/m/K
454.38 K, 1365 kPa, transient hot wire | 0.02468 W/m/K
454.41 K, 524 kPa, transient hot wire | 0.02367 W/m/K
454.41 K, 526 kPa, transient hot wire | 0.02369 W/m/K
454.49 K, 780 kPa, transient hot wire | 0.02364 W/m/K
454.5 K, 345 kPa, transient hot wire | 0.02401 W/m/K
454.5 K, 348 kPa, transient hot wire | 0.02403 W/m/K
454.5 K, 779 kPa, transient hot wire | 0.02369 W/m/K
454.54 K, 1365 kPa, transient hot wire | 0.02476 W/m/K
454.58 K, 524 kPa, transient hot wire | 0.02372 W/m/K
454.6 K, 523 kPa, transient hot wire | 0.02364 W/m/K
454.67 K, 776 kPa, transient hot wire | 0.0236 W/m/K
454.68 K, 341 kPa, transient hot wire | 0.02404 W/m/K
454.68 K, 343 kPa, transient hot wire | 0.02408 W/m/K
454.68 K, 778 kPa, transient hot wire | 0.02361 W/m/K
454.78 K, 524 kPa, transient hot wire | 0.02371 W/m/K
454.79 K, 524 kPa, transient hot wire | 0.02372 W/m/K
454.86 K, 776 kPa, transient hot wire | 0.02365 W/m/K
454.87 K, 339 kPa, transient hot wire | 0.02408 W/m/K
454.87 K, 774 kPa, transient hot wire | 0.02365 W/m/K
454.88 K, 340 kPa, transient hot wire | 0.02406 W/m/K
454.98 K, 523 kPa, transient hot wire | 0.02378 W/m/K and 0.02375 W/m/K
455.07 K, 337 kPa, transient hot wire | 0.02422 W/m/K
455.08 K, 338 kPa, transient hot wire | 0.02415 W/m/K
472.48 K, 3077 kPa, transient hot wire | 0.03434 W/m/K
472.49 K, 3077 kPa, transient hot wire | 0.03339 W/m/K
472.51 K, 2894 kPa, transient hot wire | 0.03274 W/m/K
472.53 K, 2894 kPa, transient hot wire | 0.034 W/m/K
472.53 K, 3077 kPa, transient hot wire | 0.034 W/m/K
472.55 K, 3077 kPa, transient hot wire | 0.03381 W/m/K
472.57 K, 2711 kPa, transient hot wire | 0.03198 W/m/K
472.58 K, 2894 kPa, transient hot wire | 0.03316 W/m/K
472.59 K, 2711 kPa, transient hot wire | 0.03186 W/m/K
472.59 K, 2894 kPa, transient hot wire | 0.03275 W/m/K
472.59 K, 3077 kPa, transient hot wire | 0.03373 W/m/K
472.6 K, 3077 kPa, transient hot wire | 0.03356 W/m/K
472.62 K, 3291 kPa, transient hot wire | 0.03462 W/m/K
472.63 K, 2711 kPa, transient hot wire | 0.03247 W/m/K
472.64 K, 2711 kPa, transient hot wire | 0.03224 W/m/K
472.64 K, 2894 kPa, transient hot wire | 0.03315 W/m/K and 0.03273 W/m/K
472.65 K, 3077 kPa, transient hot wire | 0.03407 W/m/K and 0.03386 W/m/K
472.67 K, 2504 kPa, transient hot wire | 0.03029 W/m/K
472.67 K, 3291 kPa, transient hot wire | 0.03475 W/m/K and 0.03505 W/m/K
472.68 K, 2504 kPa, transient hot wire | 0.02998 W/m/K
472.68 K, 2894 kPa, transient hot wire | 0.03347 W/m/K
472.7 K, 2711 kPa, transient hot wire | 0.0322 W/m/K
472.7 K, 2712 kPa, transient hot wire | 0.03222 W/m/K
472.7 K, 3078 kPa, transient hot wire | 0.03422 W/m/K and 0.0347 W/m/K
472.7 K, 4062 kPa, transient hot wire | 0.03638 W/m/K
472.71 K, 2894 kPa, transient hot wire | 0.03401 W/m/K
472.71 K, 4063 kPa, transient hot wire | 0.03625 W/m/K
472.73 K, 3291 kPa, transient hot wire | 0.03502 W/m/K and 0.03525 W/m/K
472.73 K, 3605 kPa, transient hot wire | 0.036 W/m/K
472.74 K, 3604 kPa, transient hot wire | 0.03572 W/m/K
472.75 K, 2505 kPa, transient hot wire | 0.03037 W/m/K
472.75 K, 2894 kPa, transient hot wire | 0.0336 W/m/K
472.75 K, 4063 kPa, transient hot wire | 0.03659 W/m/K
472.76 K, 2711 kPa, transient hot wire | 0.03263 W/m/K
472.77 K, 2712 kPa, transient hot wire | 0.03232 W/m/K
472.77 K, 2894 kPa, transient hot wire | 0.03342 W/m/K
472.77 K, 4063 kPa, transient hot wire | 0.0364 W/m/K
472.78 K, 3291 kPa, transient hot wire | 0.03545 W/m/K
472.78 K, 3605 kPa, transient hot wire | 0.03545 W/m/K
472.8 K, 4819 kPa, transient hot wire | 0.03773 W/m/K
472.81 K, 2264 kPa, transient hot wire | 0.02846 W/m/K
472.81 K, 2265 kPa, transient hot wire | 0.02848 W/m/K
472.81 K, 4062 kPa, transient hot wire | 0.03638 W/m/K
472.81 K, 4820 kPa, transient hot wire | 0.03801 W/m/K
472.82 K, 2505 kPa, transient hot wire | 0.03067 W/m/K and 0.03052 W/m/K
472.83 K, 2712 kPa, transient hot wire | 0.03316 W/m/K
472.83 K, 3291 kPa, transient hot wire | 0.03561 W/m/K
472.83 K, 4063 kPa, transient hot wire | 0.03659 W/m/K
472.84 K, 2711 kPa, transient hot wire | 0.03262 W/m/K
472.85 K, 3605 kPa, transient hot wire | 0.03577 W/m/K
472.86 K, 3292 kPa, transient hot wire | 0.03541 W/m/K
472.86 K, 3605 kPa, transient hot wire | 0.0358 W/m/K
472.87 K, 2265 kPa, transient hot wire | 0.02848 W/m/K
472.87 K, 4820 kPa, transient hot wire | 0.03777 W/m/K
472.88 K, 4820 kPa, transient hot wire | 0.03795 W/m/K
472.91 K, 4063 kPa, transient hot wire | 0.03666 W/m/K
472.92 K, 4063 kPa, transient hot wire | 0.03656 W/m/K
472.93 K, 3605 kPa, transient hot wire | 0.03577 W/m/K
472.94 K, 4821 kPa, transient hot wire | 0.03795 W/m/K
472.95 K, 4821 kPa, transient hot wire | 0.03782 W/m/K
472.96 K, 2265 kPa, transient hot wire | 0.02876 W/m/K
472.96 K, 4064 kPa, transient hot wire | 0.03659 W/m/K
472.97 K, 2265 kPa, transient hot wire | 0.02862 W/m/K
472.98 K, 4064 kPa, transient hot wire | 0.0367 W/m/K
472.99 K, 3605 kPa, transient hot wire | 0.03603 W/m/K
472.99 K, 3606 kPa, transient hot wire | 0.0358 W/m/K
472.99 K, 5939 kPa, transient hot wire | 0.03924 W/m/K
473.01 K, 4823 kPa, transient hot wire | 0.03784 W/m/K
473.03 K, 4823 kPa, transient hot wire | 0.038 W/m/K
473.06 K, 1890 kPa, transient hot wire | 0.02666 W/m/K
473.06 K, 2265 kPa, transient hot wire | 0.02868 W/m/K
473.06 K, 5939 kPa, transient hot wire | 0.03956 W/m/K
473.07 K, 605 kPa, hot wire | 0.02596 W/m/K
473.08 K, 606 kPa, hot wire | 0.02604 W/m/K
473.08 K, 1889 kPa, transient hot wire | 0.02628 W/m/K
473.08 K, 2265 kPa, transient hot wire | 0.02867 W/m/K
473.08 K, 5937 kPa, transient hot wire | 0.03959 W/m/K
473.1 K, 4824 kPa, transient hot wire | 0.03789 W/m/K and 0.03779 W/m/K
473.11 K, 430 kPa, hot wire | 0.0254 W/m/K
473.13 K, 429 kPa, hot wire | 0.02498 W/m/K
473.14 K, 204 kPa, hot wire | 0.0245 W/m/K and 0.02427 W/m/K
473.14 K, 5937 kPa, transient hot wire | 0.03959 W/m/K and 0.03958 W/m/K
473.15 K, 1888 kPa, transient hot wire | 0.0266 W/m/K
473.16 K, 2265 kPa, transient hot wire | 0.02905 W/m/K
473.17 K, 607 kPa, hot wire | 0.02579 W/m/K
473.17 K, 2265 kPa, transient hot wire | 0.0291 W/m/K
473.18 K, 607 kPa, hot wire | 0.02602 W/m/K
473.19 K, 7819 kPa, transient hot wire | 0.04147 W/m/K
473.19 K, 49267 kPa, transient hot wire | 0.06278 W/m/K
473.21 K, 47 kPa, hot wire | 0.02404 W/m/K
473.21 K, 427 kPa, hot wire | 0.02512 W/m/K
473.21 K, 49264 kPa, transient hot wire | 0.06294 W/m/K
473.22 K, 426 kPa, hot wire | 0.02501 W/m/K
473.22 K, 5937 kPa, transient hot wire | 0.03959 W/m/K
473.23 K, 47 kPa, hot wire | 0.02385 W/m/K
473.24 K, 203 kPa, hot wire | 0.02435 W/m/K and 0.02438 W/m/K
473.24 K, 5937 kPa, transient hot wire | 0.03993 W/m/K
473.26 K, 49261 kPa, transient hot wire | 0.06261 W/m/K
473.26 K, 49266 kPa, transient hot wire | 0.06275 W/m/K
473.27 K, 607 kPa, hot wire | 0.02598 W/m/K and 0.02584 W/m/K
473.27 K, 1888 kPa, transient hot wire | 0.02674 W/m/K
473.27 K, 49222 kPa, transient hot wire | 0.06278 W/m/K
473.27 K, 49223 kPa, transient hot wire | 0.06286 W/m/K
473.28 K, 47 kPa, hot wire | 0.02405 W/m/K
473.28 K, 1888 kPa, transient hot wire | 0.02686 W/m/K
473.28 K, 7819 kPa, transient hot wire | 0.0414 W/m/K
473.29 K, 423 kPa, hot wire | 0.02534 W/m/K
473.29 K, 5935 kPa, transient hot wire | 0.03933 W/m/K
473.29 K, 7822 kPa, transient hot wire | 0.04164 W/m/K
473.3 K, 47 kPa, hot wire | 0.02401 W/m/K
473.3 K, 425 kPa, hot wire | 0.02526 W/m/K
473.31 K, 5936 kPa, transient hot wire | 0.03955 W/m/K
473.33 K, 202 kPa, hot wire | 0.02458 W/m/K
473.33 K, 7818 kPa, transient hot wire | 0.04161 W/m/K
473.33 K, 33947 kPa, transient hot wire | 0.05683 W/m/K
473.33 K, 49216 kPa, transient hot wire | 0.06307 W/m/K
473.34 K, 203 kPa, hot wire | 0.02431 W/m/K
473.34 K, 33948 kPa, transient hot wire | 0.05717 W/m/K
473.35 K, 47 kPa, hot wire | 0.02449 W/m/K
473.35 K, 49221 kPa, transient hot wire | 0.06272 W/m/K
473.36 K, 47 kPa, hot wire | 0.02437 W/m/K
473.36 K, 606 kPa, hot wire | 0.02606 W/m/K
473.36 K, 7821 kPa, transient hot wire | 0.04152 W/m/K
473.37 K, 607 kPa, hot wire | 0.0258 W/m/K
473.38 K, 420 kPa, hot wire | 0.02536 W/m/K
473.38 K, 1887 kPa, transient hot wire | 0.02681 W/m/K
473.38 K, 1913 kPa, transient hot wire | 0.02688 W/m/K
473.38 K, 49255 kPa, transient hot wire | 0.06283 W/m/K
473.39 K, 419 kPa, hot wire | 0.0252 W/m/K
473.39 K, 1474 kPa, transient hot wire | 0.02551 W/m/K
